Reference: patent US20260015350A1, “AZAQUINAZOLINE PAN-KRAS INHIBITORS” (Mirati Therapeutics, Inc., priority 2022, published 2026)

Experiments:
[1] = tested on: KRas-mediated phosphorylation of ERK in AsPC-1 cells; assay: Inhibition of KRas-mediated phosphorylation of ERK (Cisbio HTRF pERK), AsPC-1 cells; assay type: cell-based; details: Homo sapiens; for IC50: ASPC1, AsPC-1 cells, HTRF pERK
In short: (§1)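 Compound treatment lasts 3 hrs on 6,000 seeded cells, testing 10 doses from a 10 uM top concentration in 3-fold decrements at 0.8% final DMSO. Trametinib at 0.2 uM defines the Min signal. Detection is HTRF on cold-lysed cell extracts.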

[2] = tested on: KRas-mediated phosphorylation of ERK in H727 cells; assay: Inhibition of KRas-mediated phosphorylation of ERK (Cisbio HTRF pERK), H727 cells; assay type: cell-based; details: Homo sapiens; for IC50: NCI-H727, H727 cells, HTRF pERK
In short: as §1

KRas^G12V = target: T1, KRas^G12V (Homo sapiens, UniProt P01116, G12V); assay: KRas binding assay (TR-FRET tracer displacement), KRas G12V
T1 construct: Biotinylated KRas (corresponding to amino acids 1-169, produced at Accelegan Inc.); biotin (biotinylated); purchased Accelegan Inc

[3] = tested on: KRas-mediated phosphorylation of ERK in H358 cells; assay: Inhibition of KRas-mediated phosphorylation of ERK (Cisbio HTRF pERK), H358 cells; assay type: cell-based; details: Homo sapiens; for inhibition at 0.1 µM: NCI-H358, 3 h, single point, 100 nM compound, 3 hrs
Description: (§2) Inhibition of KRas Phosphorylation of ERK (HTRF) by Exemplary Compounds of Formula (I) Cisbio HTRF Advanced PERK Assay Catalog #64[…] […] Add 10 mL of media to stop trypsinizing. Pipette the cells into a conical bottom 50 mL centrifuge tube and centrifuge 5 min×1000 rpm. […] Re-suspend the cell pellet in media, take a cell count, and then adjust the cell density using fresh media. […] Seed 6,000 cells into cell culture plate with 50 μL media. […] Use Tecan to complete the compound addition. Compounds start from 10 uM top, 3-fold dilution, and 10 doses. The final DMSO concentration is 0.8%. Dispensed 0.2 uM Trametinib as Min control. […] Incubate cell plate for 3 hrs in the incubator. […] Dilute 1 volume of 4× lysis buffer with 3 volumes of deionized water. […] Keep lysis buffer on the ice. […] At the end of the compound treatment, flick-off the media. […] Add 35 μL of lysis buffer per well using a Multidrop Combi. Then place on a plate agitator shaking at 300 rpm at 4° C. for 40 mins. […] Make up the HTRF antibody buffer. For each assay plate, mix 50 μL of d2-conjugate antibody with 950 μL of detection buffer. Similarly, mix 50 μL of Cryptate antibody with 950 μL of detection buffer. Then mix the two diluted antibodies together. […] Dispense 3.4 μL the antibody buffer to wells of an empty assay plate. Seal the plate and centrifuge plate 30 sec×1000 rpm. […] At the end of the 4° C. lysis, centrifuge the lysate plates 3 mins×1500 rpm. […] Use the Bravo to transfer 13.6 μL of lysate from cell culture plate to assay plate. Then incubate assay plate for 2 hrs at room temperature. 8. At the end of incubation, read plate on the Envision after centrifuging plate 30 sec×1000 rpm.

[4] = tested on: KRas-mediated phosphorylation of ERK in A549 cells; assay: Inhibition of KRas-mediated phosphorylation of ERK (Cisbio HTRF pERK), A549 cells; assay type: cell-based; details: Homo sapiens; for inhibition at 0.1 µM: A549, 3 h, single point, 100 nM compound, 3 hrs
Description: as §2

KRas^G12R = target: T2, KRas^G12R (Homo sapiens, UniProt P01116, G12R); assay: KRas binding assay (TR-FRET tracer displacement), KRas G12R
T2 construct: Biotinylated KRas (corresponding to amino acids 1-169, produced at Accelegan Inc.); biotin (biotinylated); purchased Accelegan Inc

[5] = tested on: KRas-mediated phosphorylation of ERK in H460 cells; assay: Inhibition of KRas-mediated phosphorylation of ERK (Cisbio HTRF pERK), H460 cells; assay type: cell-based; details: Homo sapiens; for inhibition at 0.1 µM: NCI-H460, 3 h, single point, 100 nM compound, 3 hrs
Description: as §2

KRas^G12D = target: T3, KRas^G12D (Homo sapiens, UniProt P01116, G12D); assay: KRas binding assay (TR-FRET tracer displacement), KRas G12D
T3 construct: Biotinylated KRas (corresponding to amino acids 1-169, produced at Accelegan Inc.); biotin (biotinylated); purchased Accelegan Inc

[6] = tested on: KRas-mediated phosphorylation of ERK in HCT116 cells; assay: Inhibition of KRas-mediated phosphorylation of ERK (Cisbio HTRF pERK), HCT116 cells; assay type: cell-based; details: Homo sapiens; for inhibition at 0.1 µM: HCT-116, 3 h, single point, 100 nM compound, 3 hrs
Description: as §2

T3 sequence (P01116 1-169 isoform P01116-2 G12D): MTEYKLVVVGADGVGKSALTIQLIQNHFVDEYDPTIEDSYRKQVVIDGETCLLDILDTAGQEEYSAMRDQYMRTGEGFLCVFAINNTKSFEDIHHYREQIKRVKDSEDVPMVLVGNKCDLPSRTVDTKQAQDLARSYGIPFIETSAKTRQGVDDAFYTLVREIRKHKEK
T2 sequence (P01116 1-169 isoform P01116-2 G12R): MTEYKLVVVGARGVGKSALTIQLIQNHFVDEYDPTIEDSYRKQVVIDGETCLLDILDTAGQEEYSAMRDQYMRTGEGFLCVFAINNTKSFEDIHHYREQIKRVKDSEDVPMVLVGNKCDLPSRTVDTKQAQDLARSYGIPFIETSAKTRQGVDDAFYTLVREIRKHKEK
T1 sequence (P01116 1-169 isoform P01116-2 G12V): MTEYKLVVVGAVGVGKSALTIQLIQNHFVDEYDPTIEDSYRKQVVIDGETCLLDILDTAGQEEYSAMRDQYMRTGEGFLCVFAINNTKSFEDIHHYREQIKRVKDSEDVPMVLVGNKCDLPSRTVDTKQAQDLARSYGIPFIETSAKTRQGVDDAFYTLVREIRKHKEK

| SMILES | IC50 [1] | IC50 [2] | IC50 (KRas^G12V) | inhibition at 0.1 µM [3] | inhibition at 0.1 µM [4] | IC50 (KRas^G12R) | inhibition at 0.1 µM [5] | IC50 (KRas^G12D) | inhibition at 0.1 µM [6] | IC50 ([3]; NCI-H358, HTRF pERK) | IC50 ([4]; HTRF pERK) | IC50 ([5]; NCI-H460, HTRF pERK) | IC50 ([6]; HCT-116, HTRF pERK) | inhibition at 0.1 µM ([1]; ASPC1, 3 h, single point, 100 nM compound, 3 hrs, AsPC-1 cells) | inhibition at 0.1 µM ([2]; NCI-H727, 3 h, single point, 100 nM compound, 3 hrs, H727 cells) |
| --- | --- | --- | --- | --- | --- | --- | --- | --- | --- | --- | --- | --- | --- | --- | --- |
| CCc1c(F)ccc2cc(O)cc(-c3ncc4c(N5CCC(C)(O)C(F)(F)CC5)nc(OC[C@@]56CCCN5C[C@H](F)C6)nc4c3F)c12 (stereo partly drawn) [Example 605, 1-(7-(8-ethyl-7-fluoro-3-hydroxynaphthalen-1-yl)-8-fluoro-2-(((2R,7aS)-2-fluorotetrahydro-1H-pyrrolizin-7a(5H)-yl)methoxy)pyrido[4,3-d]pyrimidin-4-yl)-5,5-difluoro-4-methylazepan-4-ol] | 1560 nM | 946 nM | 71 nM | 3% | 20% | 47 nM | 7% | 119 nM | -12% | – | – | – | – | – | – |
| C[C@@]1(O)CCCN(c2nc(OC[C@@]34CCCN3C[C@H](F)C4)nc3c(F)c(-c4cc(O)cc5ccccc45)ncc23)C1 [Example 917, (R)-1-(8-fluoro-2-(((2R,7aS)-2-fluorotetrahydro-1H-pyrrolizin-7a(5H)-yl)methoxy)-7-(3-hydroxynaphthalen-1-yl)pyrido[4,3-d]pyrimidin-4-yl)-3-methylpiperidin-3-ol] | 149 nM | 223 nM | 7 nM | – | – | 12 nM | – | 4 nM | – | 54 nM | 233 nM | 198 nM | 151 nM | – | – |
| CCc1c(F)ccc2cc(O)cc(-c3ncc4c(N5CCC[C@@](C)(O)C5)nc(OCC5(CN(C)C)CC5CC)nc4c3F)c12 (stereo partly drawn) [Example 703, (3R)-1-(2-((1-((dimethylamino)methyl)-2-ethylcyclopropyl)methoxy)-7-(8-ethyl-7-fluoro-3-hydroxynaphthalen-1-yl)-8-fluoropyrido[4,3-d]pyrimidin-4-yl)-3-methylpiperidin-3-ol] | 342 nM | 982 nM | 7 nM | -10% | 47% | 14 nM | 4% | 5 nM | 0% | – | – | – | – | – | – |
| CCc1c(F)ccc2cc(O)cc(-c3ncc4c(N5CCC[C@@](C)(O)C5)nc(N5CC(N(C)C)C5)nc4c3F)c12 [Example 533, (R)-1-(2-(3-(dimethylamino)azetidin-1-yl)-7-(8-ethyl-7-fluoro-3-hydroxynaphthalen-1-yl)-8-fluoropyrido[4,3-d]pyrimidin-4-yl)-3-methylpiperidin-3-ol] | 1500 nM | 1970 nM | 105 nM | -7% | 27% | 119 nM | 8% | 72 nM | 8% | – | – | – | – | – | – |
| CCc1c(F)ccc2cc(O)cc(-c3ncc4c(N5Cc6n[nH]c(CO)c6C5)nc(OC[C@@]56CCCN5C[C@H](F)C6)nc4c3F)c12 [Example 785, 5-ethyl-6-fluoro-4-(8-fluoro-2-(((2R,7aS)-2-fluorohexahydro-1H-pyrrolizin-7a-yl)methoxy)-4-(3-(hydroxymethyl)pyrrolo[3,4-c]pyrazol-5 (2H,4H,6H)-yl)pyrido[4,3-d]pyrimidin-7-yl)naphthalen-2-ol] | – | > 10000 nM | 435 nM | 9% | 8% | 787 nM | 0% | 1300 nM | 5% | – | – | – | – | -6% | 2% |
